Earlier results on one substance are cited in PMC3501146 (ACS Chemical Biology, 2012).

The data set deals with Lactococcus lactis subsp. cremoris HP. Particulars: indicator strain L. lactis subsp. cremoris HP.

In the case of “nisin (ITSISLCTPGCKTGALMGCNMKTATCHCSIHVSK; not fully specified; Lantibiotic nisin-A; UniProt P13068 24-57, looked up)”, the “MIC against L. lactis subsp. cremoris HP (nisin)” value was 32 nM.
